Experimental data published in US20070238731A1, “Dna-Pk Inhibitors” (KUDOS PHARMACEUTICALS LIMITED, priority 2004, published 2007).
One block for each compound: values may come before it.

Key:
PI 3-kinase = conditions: stated to be the same as for DNA-PK; cited from earlier work
DNA-PK = DNA-PK (Homo sapiens, UniProt P78527); conditions: read-out: IC50 towards DNA-PK; cited from earlier work
cells = conditions: cited from earlier work
HeLa cells = assay: Survival Enhancement Ratio (clonogenic survival assay after 2 Gray irradiation); assay type: cell-based; conditions: inhibitor 100 nM

melting point: 148 °C
SMILES: O=C(CCNCC1CCCO1)Nc1ccc(-c2cccc3c(=O)cc(N4CCOCC4)oc23)c2sc3ccccc3c12 (centres unmarked) [Compound 53]

SMILES: O=c1cc(N2CCOCC2)oc2c(-c3ccccc3)cccc12 [LY294002]
IC50 (PI 3-kinase): ~1000 nM | IC50 (DNA-PK): ~1000 nM | sensitisation of cells to the effects of IR (cells): weakly sensitise cells to the effects of IR

SMILES: O=c1cc(N2CCOCC2)oc2c(-c3cccc4c3sc3ccccc34)cccc12
Survival Enhancement Ratio (SER) (HeLa cells): 1.3
